“Also recorded” adds a separate entry of the source.
Experiments:
H1 human ES cells = assay: Neuronal differentiation of human ES cells, differentiation protocol 2 (clinical grade protocol); assay type: cell-based
Method: Undifferentiated human H1 ES cells were cultured on irradiated mouse embryonic fibroblasts (MEF). To carry out neuronal differentiation, ES cells were mechanically dissociated into small aggregates (50-300 cells) and cultured in suspension on low-attachment six-well plates. For the first 4 days, the cells were cultured in neuronal induction medium (DMEM F-12 (Gibco), N2 supplement (Gibco), penicillin and streptomycin (Gibco), phenazopyridine 3:M). Then the medium was changed to simple neuronal proliferation medium (DMEM F-12, N2 supplement, 20 ng/ml human recombinant bFGF, penicillin and streptomycin, phenazopyridine 3:M) for 2 additional days. Subsequently, 15-20 6-day old cell aggregates were plated on polyornithine/laminin-coated six-well plates and maintained in simple neuronal proliferation medium for 7 days. Cells were then mechanically dissociated and replated in N2 medium (DMEM high glucose (Gibco), 10 ng/ml human recombinant bFGF (Gibco), N2 supplement (Gibco), penicillin and streptomycin (Gibco)) at a density of 20,000 cells per cm^2 on polyornithine/laminin-coated six-well plate. Cells were passaged when they reached 80-90% confluency, and were maintained in the same culture conditions for 2 additional weeks. Stock phenazopyridine (Microsource Discovery Inc.) was prepared by diluting phenazopyridine powder in DMSO (Sigma-Aldrich) at a concentration of 6 mM. The stock solution was diluted at 1:2000 in cell culture media to obtain a final concentration of 3:M Each of the components of the neuronal induction medium, the simple neuronal proliferation medium and the N2 medium can be replaced with clinical grade equivalents. Therefore, the foregoing procedure of carrying out neuronal differentiation is referred to herein as the “clinical grade protocol.”
The effects of phenazopyridine on ES cell differentiation were investigated using the clinical grade-compatible protocol. The first step involved generation of spheres of cells grown in suspension for 6 days, followed by replating on polyornithine/laminin coated plastic. One week later, cells were passaged at 2×10^4 cells/cm^2 on polyornithine/laminin coated plastic, and during the following two weeks cells were passaged when they reached 80-90% confluency. Cells were treated with either DMSO (1:2000) or with phenazopyridine (PAP) at 3:M with equivalent final DMSO concentration throughout the 4 week period.
Two different protocols were used to induce neuronal differentiation of human ES cells. In the first protocol, human ES cells were mechanically dissociated into small aggregates and plated on laminin/polyornithine coated six-well plates. Cells were cultured 2 weeks in human SR medium (DMEM F-12 supplemented with 15% knockout serum (Gibco), non-essential amino acids, penicillin and streptomycin), followed by 4 weeks in N2 medium. Compounds were added throughout these first 6 weeks. Subsequently, cells were mechanically dissociated and replated on polyornithine/laminin-coated 6 well plates. Throughout the text, this first differentiation protocol will be referred to as “differentiation protocol 1”. The second differentiation protocol was derived from previously described differentiation conditions (Nat et al., 2007). In the second differentiation protocol, undifferentiated human ES cells were mechanically dissociated into small aggregates and cultured in suspension on low-attachment six-well plates. For the first 4 days, they were cultured in neuronal induction medium (DMEM F-12, N2 supplement, penicillin and streptomycin), which was changed to simple neuronal proliferation medium (DMEM F-12, N2 supplement, 20 ng/ml bFGF, penicillin and streptomycin) for 2 additional days. Subsequently, aggregates were plated on polyornithine/laminin-coated six-well plates and maintained in simple neuronal proliferation medium for 7 days. Cells were then mechanically dissociated and replated in N2 medium at a density of 2×10^4 cells per cm^2 for two additional weeks.

[1] = system: human ES cell-derived neural precursors; assay: Two step differentiation: precursors replated without compound in neuronal differentiation medium; assay type: cell-based
Excerpt: To investigate the potential of neural precursors generated through phenazopyridine treatment, cells exposed to DMSO or phenazopyridine for four weeks as in Example 2 were replated at low density (5×10^3 cells/cm^2) on polyornithine/laminin coated support in neuronal differentiation medium, and investigated for their phenotype at different time points. Cells were then immunostained for neuronal markers and alkaline phosphatase (marking undifferentiated ES cells) after one week and four weeks of differentiation. Immunostaining was performed for nestin, β3-tubulin, Sox1, Pax6, vimentin, GFAP, CNPase, v-Glut1, GAD67, tyrosine hydroxylase and alkaline phosphatase. […] Two different protocols were used to induce neuronal differentiation of human ES cells. In the first protocol, human ES cells were mechanically dissociated into small aggregates and plated on laminin/polyornithine coated six-well plates. Cells were cultured 2 weeks in human SR medium (DMEM F-12 supplemented with 15% knockout serum (Gibco), non-essential amino acids, penicillin and streptomycin), followed by 4 weeks in N2 medium. Compounds were added throughout these first 6 weeks. Subsequently, cells were mechanically dissociated and replated on polyornithine/laminin-coated 6 well plates. Throughout the text, this first differentiation protocol will be referred to as “differentiation protocol 1”. The second differentiation protocol was derived from previously described differentiation conditions (Nat et al., 2007). In the second differentiation protocol, undifferentiated human ES cells were mechanically dissociated into small aggregates and cultured in suspension on low-attachment six-well plates. For the first 4 days, they were cultured in neuronal induction medium (DMEM F-12, N2 supplement, penicillin and streptomycin), which was changed to simple neuronal proliferation medium (DMEM F-12, N2 supplement, 20 ng/ml bFGF, penicillin and streptomycin) for 2 additional days. Subsequently, aggregates were plated on polyornithine/laminin-coated six-well plates and maintained in simple neuronal proliferation medium for 7 days. Cells were then mechanically dissociated and replated in N2 medium at a density of 2×10^4 cells per cm^2 for two additional weeks. Compounds were added throughout these first 4 weeks. Cells were then replated at a density of 5′000 cells per cm^2 in neuronal differentiation medium (Neurobasal medium, B-27 supplement, BDNF (10 ng/ml), penicillin and streptomycin). Throughout the text, this second differentiation protocol will be referred as to “differentiation protocol 2”. […] To investigate the potential of neuronal precursors generated through phenazopyridine treatment, the inventors devised a two step differentiation protocol. Cells were first treated with 3 μM phenazopyridine for 4 weeks and subsequently replated in the absence of phenazopyridine. For the second step, the inventors cultured cells at low density (5×10^3 cells/cm^2) on polyornithine/laminin-coated support in neuronal differentiation medium and investigated their phenotype at different time points in three independent experiments.

[2] = 3 μM, four weeks of differentiation

Nc1ccc(/N=N/c2ccccc2)c(N)n1 [phenazopyridine]
dissociation after mechanical passaging (H1 human ES cells; 3 μM vs DMSO): could easily be dissociated into single cells
percentage of living single cells by trypan blue exclusion (survival of dissociated cells) (H1 human ES cells; 3 μM vs DMSO, at passaging at different time points): promotes survival of dissociated cells
sphere morphology after one week of differentiation (H1 human ES cells; 3 μM vs DMSO, phase contrast): No apparent difference; also recorded: morphologically indistinct
sphere morphology at two weeks of differentiation (H1 human ES cells; 3 μM vs DMSO, phase contrast): developed into big areas of monolayer surrounding the plated spheres; also recorded: developed bigger areas of monolayer at their periphery
neuronal marker phenotype by immunostaining (H1 human ES cells; 3 μM, after four weeks of differentiation): Virtually all cells were nestin, Sox 1 and vimentin-positive, expressed β3-tubulin and Pax6 at low levels, and were negative for musashi
cells nestin-positive with low levels of β3-tubulin (early neuronal precursors) (H1 human ES cells; [2]): approximately 98%
non-neural cells (nestin and β3-tubulin negative) or differentiated neurons (β3-tubulin only) (H1 human ES cells; [2]): no non-neural cells or differentiated neurons were observed
mitotic figures and PCNA-positive cells in monolayer area (H1 human ES cells; 3 μM, two weeks, vs DMSO): many mitotic figures and PCNA-positive cells
phenotype 4 weeks after replating ([1]; 3 μM for 4 weeks, then 4 weeks without compound): formed networks of neurons, astrocytes and oligodendrocytes; also recorded: slow-growing cell clusters homogeneously positive for nestin, β3-tubulin, Sox1 and vimentin, together with more mature neurons, astrocytes and oligodendrocyte progenitors
subtypes of neurons ([1]; 3 μM for 4 weeks, then one week without compound): mainly glutamatergic, GABAergic and rarely dopaminergic neurons; also recorded: glutamatergic, GABAergic and—more rarely—TH-positive neurons
phenotype one week after replating ([1]; 3 μM for 4 weeks, then replated without compound): started to differentiate into neurons; also recorded: relatively homogenous monolayer of neural precursors and early neurons with short neurites
alkaline phosphatase-positive (undifferentiated ES) cells ([1]; after replating, vs control): never detected alkaline phosphatase-positive cells
astrocytes or oligodendrocyte precursors (GFAP, CNPase immunostaining) ([1]; one week after replating): did not observe the presence of astrocytes or oligodendrocytes precursors

— patent publication US8609413B2, “Neurons, astrocytes and oligodendrocytes differentiated from a mammalian pluripotent or neural stem cells exposed to a pyridine deriviative” (Research Development Foundation, priority 2007, dated 2013)
